Target: Aβ–fibrinogen interaction (Homo sapiens, UniProt P05067)
Experiment: AlphaLISA
Format: binding

Chain of Aβ–fibrinogen interaction (P05067 672-713): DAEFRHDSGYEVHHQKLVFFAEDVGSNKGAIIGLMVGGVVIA

With `CSc1ccc(/C=C2/C(C)=C(CC(=O)O)c3cc(F)ccc32)cc1` [sulindac sulfide] the “Inhibition of the Aβ–fibrinogen interaction in AlphaLISA (in words)” value was “no effect”.

Source: paper PMC4042638 (The Journal of Experimental Medicine, 2014)
